Laboratory results reported in the supplement of paper PMC13380429.

Columns and labels:
Conditions in all cases: 72 h
Calu-3 [1] = test: drug sensitivity score (DSS) for viability; higher = more toxic; extreme values may be limits of the assay
HepG2 [2] = test: as above
Vero E6 [3] = test: as above
Caco-2 [4] = test: cell viability relative to DMSO; higher = less toxic
Calu-3 [5] = test: as above
HepG2 [6] = test: as above
U2OS [7] = test: as above
Vero E6 [8] = test: as above
Calu-3 [9] = test: relative viability EC50 (midpoint between 100% and the lowest measured viability); higher = less toxic
U2OS [10] = test: as above
Vero E6 [11] = test: as above
Caco-2 [12] = test: drug sensitivity score (DSS) for viability; higher = more toxic; extreme values may be limits of the assay
U2OS [13] = test: as above
Caco-2 [14] = test: relative viability EC50 (midpoint between 100% and the lowest measured viability); higher = less toxic

## Nn1cnc2cc3ccccc3cc2c1=O [centazolone]
Calu-3 [1]
  drug sensitivity score: 0
HepG2 [2]
  drug sensitivity score: 0
Vero E6 [3]
  drug sensitivity score: 0

## CCCCCCC[N+](CC)(CC)CCCCc1ccc(Cl)cc1 [clofilium]
Caco-2 [4]; 1 nM
  cell viability: 114%
Caco-2 [4]; 10 nM
  cell viability: 106%
Caco-2 [4]; 100 nM
  cell viability: 101%
Caco-2 [4]; 1000 nM
  cell viability: 108%
Caco-2 [4]; 10000 nM
  cell viability: 54.4%
Calu-3 [5]; 1 nM
  cell viability: 83.9%
Calu-3 [5]; 10 nM
  cell viability: 106%
Calu-3 [5]; 100 nM
  cell viability: 91.8%
Calu-3 [5]; 1000 nM
  cell viability: 93.6%
Calu-3 [5]; 10000 nM
  cell viability: 87.7%
HepG2 [6]; 1 nM
  cell viability: 94.1%
HepG2 [6]; 10 nM
  cell viability: 124%
HepG2 [6]; 100 nM
  cell viability: 135%
HepG2 [6]; 1000 nM
  cell viability: 122%
HepG2 [6]; 10000 nM
  cell viability: 72.5%
U2OS [7]; 1 nM
  cell viability: 95.7%
U2OS [7]; 10 nM
  cell viability: 95.6%
U2OS [7]; 100 nM
  cell viability: 97.7%
U2OS [7]; 1000 nM
  cell viability: 93%
U2OS [7]; 10000 nM
  cell viability: 92.2%
Vero E6 [8]; 1 nM
  cell viability: 89%
Vero E6 [8]; 10 nM
  cell viability: 102%
Vero E6 [8]; 100 nM
  cell viability: 95.2%
Vero E6 [8]; 1000 nM
  cell viability: 104%
Vero E6 [8]; 10000 nM
  cell viability: 116%
Calu-3 [9]
  relative viability EC50: > 10 µM
U2OS [10]
  relative viability EC50: > 10 µM
Vero E6 [11]
  relative viability EC50: > 10 µM
Caco-2 [12]
  drug sensitivity score: 1.9
Calu-3 [1]
  drug sensitivity score: 0
HepG2 [2]
  drug sensitivity score: 0.6
U2OS [13]
  drug sensitivity score: 0
Vero E6 [3]
  drug sensitivity score: 0

## COc1cc(C(=O)OCCCN2CCCN(CCCOC(=O)c3cc(OC)c(OC)c(OC)c3)CC2)cc(OC)c1OC [dilazep]
Caco-2 [4]; 1 nM
  cell viability: 91.6%
Caco-2 [4]; 10 nM
  cell viability: 98.3%
Caco-2 [4]; 100 nM
  cell viability: 97.1%
Caco-2 [4]; 1000 nM
  cell viability: 97.1%
Caco-2 [4]; 10000 nM
  cell viability: 73.6%
Calu-3 [5]; 1 nM
  cell viability: 112%
Calu-3 [5]; 10 nM
  cell viability: 102%
Calu-3 [5]; 100 nM
  cell viability: 93.9%
Calu-3 [5]; 1000 nM
  cell viability: 103%
Calu-3 [5]; 10000 nM
  cell viability: 88.1%
HepG2 [6]; 1 nM
  cell viability: 104%
HepG2 [6]; 10 nM
  cell viability: 89.5%
HepG2 [6]; 100 nM
  cell viability: 102%
HepG2 [6]; 1000 nM
  cell viability: 82.4%
HepG2 [6]; 10000 nM
  cell viability: 70.4%
U2OS [7]; 1 nM
  cell viability: 98.9%
U2OS [7]; 10 nM
  cell viability: 101%
U2OS [7]; 100 nM
  cell viability: 99.6%
U2OS [7]; 1000 nM
  cell viability: 103%
U2OS [7]; 10000 nM
  cell viability: 84.6%
Vero E6 [8]; 1 nM
  cell viability: 98.5%
Vero E6 [8]; 10 nM
  cell viability: 97.3%
Vero E6 [8]; 100 nM
  cell viability: 100%
Vero E6 [8]; 1000 nM
  cell viability: 88.6%
Vero E6 [8]; 10000 nM
  cell viability: 79.1%
Calu-3 [9]
  relative viability EC50: > 10 µM
U2OS [10]
  relative viability EC50: > 10 µM
Vero E6 [11]
  relative viability EC50: > 10 µM
Caco-2 [12]
  drug sensitivity score: 1.5
Calu-3 [1]
  drug sensitivity score: 0
HepG2 [2]
  drug sensitivity score: 3.3
U2OS [13]
  drug sensitivity score: 0.2
Vero E6 [3]
  drug sensitivity score: 1.8

## COc1ccc2[nH]c([S@@+]([O-])Cc3ncc(C)c(OC)c3C)nc2c1 [esomeprazole]
Caco-2 [4]; 1 nM
  cell viability: 97.2%
Caco-2 [4]; 10 nM
  cell viability: 101%
Caco-2 [4]; 100 nM
  cell viability: 101%
Caco-2 [4]; 1000 nM
  cell viability: 102%
Caco-2 [4]; 10000 nM
  cell viability: 83.1%
Calu-3 [5]; 1 nM
  cell viability: 98.3%
Calu-3 [5]; 10 nM
  cell viability: 108%
Calu-3 [5]; 100 nM
  cell viability: 110%
Calu-3 [5]; 1000 nM
  cell viability: 96.9%
Calu-3 [5]; 10000 nM
  cell viability: 103%
U2OS [7]; 1 nM
  cell viability: 102%
U2OS [7]; 10 nM
  cell viability: 102%
U2OS [7]; 100 nM
  cell viability: 95%
U2OS [7]; 1000 nM
  cell viability: 102%
U2OS [7]; 10000 nM
  cell viability: 95.8%
Vero E6 [8]; 1 nM
  cell viability: 93.8%
Vero E6 [8]; 10 nM
  cell viability: 108%
Vero E6 [8]; 100 nM
  cell viability: 100%
Vero E6 [8]; 1000 nM
  cell viability: 97.8%
Vero E6 [8]; 10000 nM
  cell viability: 107%
Caco-2 [14]
  relative viability EC50: > 10 µM
Calu-3 [9]
  relative viability EC50: > 10 µM
U2OS [10]
  relative viability EC50: > 10 µM
Vero E6 [11]
  relative viability EC50: > 10 µM
Caco-2 [12]
  drug sensitivity score: 0.3
Calu-3 [1]
  drug sensitivity score: 0
U2OS [13]
  drug sensitivity score: 0
Vero E6 [3]
  drug sensitivity score: 0

## CCC1(C)CC(=O)NC1=O (stereo not drawn) [ethosuximide]
Caco-2 [4]; 1 nM
  cell viability: 87%
Caco-2 [4]; 10 nM
  cell viability: 77.2%
Caco-2 [4]; 100 nM
  cell viability: 88.5%
Caco-2 [4]; 1000 nM
  cell viability: 84.8%
Caco-2 [4]; 10000 nM
  cell viability: 84.6%
Calu-3 [5]; 1 nM
  cell viability: 110%
Calu-3 [5]; 10 nM
  cell viability: 93.6%
Calu-3 [5]; 100 nM
  cell viability: 89.8%
Calu-3 [5]; 1000 nM
  cell viability: 107%
Calu-3 [5]; 10000 nM
  cell viability: 94%
U2OS [7]; 1 nM
  cell viability: 102%
U2OS [7]; 10 nM
  cell viability: 93.4%
U2OS [7]; 100 nM
  cell viability: 102%
U2OS [7]; 1000 nM
  cell viability: 99.6%
U2OS [7]; 10000 nM
  cell viability: 100%
Vero E6 [8]; 1 nM
  cell viability: 99.2%
Vero E6 [8]; 10 nM
  cell viability: 106%
Vero E6 [8]; 100 nM
  cell viability: 101%
Vero E6 [8]; 1000 nM
  cell viability: 103%
Vero E6 [8]; 10000 nM
  cell viability: 96.6%
Caco-2 [14]
  relative viability EC50: > 10 µM
Calu-3 [9]
  relative viability EC50: > 10 µM
U2OS [10]
  relative viability EC50: > 10 µM
Vero E6 [11]
  relative viability EC50: > 10 µM
Caco-2 [12]
  drug sensitivity score: 0
Calu-3 [1]
  drug sensitivity score: 0
U2OS [13]
  drug sensitivity score: 0
Vero E6 [3]
  drug sensitivity score: 0

## O=C(Nc1cccc2cccnc12)c1ccc(N2C(=O)[C@@H]3[C@H](C2=O)[C@H]2C=C[C@@H]3C2)cc1 [exo-IWR-1]
Caco-2 [4]; 1 nM
  cell viability: 92.2%
Caco-2 [4]; 10 nM
  cell viability: 100%
Caco-2 [4]; 100 nM
  cell viability: 103%
Caco-2 [4]; 1000 nM
  cell viability: 102%
Caco-2 [4]; 10000 nM
  cell viability: 106%
Calu-3 [5]; 1 nM
  cell viability: 87.4%
Calu-3 [5]; 10 nM
  cell viability: 103%
Calu-3 [5]; 100 nM
  cell viability: 107%
Calu-3 [5]; 1000 nM
  cell viability: 103%
Calu-3 [5]; 10000 nM
  cell viability: 102%
HepG2 [6]; 1 nM
  cell viability: 105%
HepG2 [6]; 10 nM
  cell viability: 99.3%
HepG2 [6]; 100 nM
  cell viability: 103%
HepG2 [6]; 1000 nM
  cell viability: 87.9%
HepG2 [6]; 10000 nM
  cell viability: 92%
U2OS [7]; 1 nM
  cell viability: 99.1%
U2OS [7]; 10 nM
  cell viability: 104%
U2OS [7]; 100 nM
  cell viability: 99.6%
U2OS [7]; 1000 nM
  cell viability: 108%
U2OS [7]; 10000 nM
  cell viability: 104%
Vero E6 [8]; 1 nM
  cell viability: 94.2%
Vero E6 [8]; 10 nM
  cell viability: 93.1%
Vero E6 [8]; 100 nM
  cell viability: 92.2%
Vero E6 [8]; 1000 nM
  cell viability: 97.1%
Vero E6 [8]; 10000 nM
  cell viability: 106%
Caco-2 [12]
  drug sensitivity score: 0
Calu-3 [1]
  drug sensitivity score: 0
HepG2 [2]
  drug sensitivity score: 0.5
U2OS [13]
  drug sensitivity score: 0
Vero E6 [3]
  drug sensitivity score: 0

## CN1CCN(c2c(F)cc3c(=O)c(C(=O)O)cn(CCF)c3c2F)CC1 [fleroxacin]
Caco-2 [4]; 1 nM
  cell viability: 102%
Caco-2 [4]; 10 nM
  cell viability: 97.2%
Caco-2 [4]; 100 nM
  cell viability: 100%
Caco-2 [4]; 1000 nM
  cell viability: 96.8%
Caco-2 [4]; 10000 nM
  cell viability: 107%
Calu-3 [5]; 1 nM
  cell viability: 88%
Calu-3 [5]; 10 nM
  cell viability: 106%
Calu-3 [5]; 100 nM
  cell viability: 102%
Calu-3 [5]; 1000 nM
  cell viability: 108%
Calu-3 [5]; 10000 nM
  cell viability: 107%
U2OS [7]; 1 nM
  cell viability: 96.5%
U2OS [7]; 10 nM
  cell viability: 93.6%
U2OS [7]; 100 nM
  cell viability: 104%
U2OS [7]; 1000 nM
  cell viability: 97.1%
U2OS [7]; 10000 nM
  cell viability: 102%
Vero E6 [8]; 1 nM
  cell viability: 102%
Vero E6 [8]; 10 nM
  cell viability: 105%
Vero E6 [8]; 100 nM
  cell viability: 97.6%
Vero E6 [8]; 1000 nM
  cell viability: 101%
Vero E6 [8]; 10000 nM
  cell viability: 98.1%
Caco-2 [14]
  relative viability EC50: > 10 µM
Calu-3 [9]
  relative viability EC50: > 10 µM
U2OS [10]
  relative viability EC50: > 10 µM
Vero E6 [11]
  relative viability EC50: > 10 µM
Caco-2 [12]
  drug sensitivity score: 0
Calu-3 [1]
  drug sensitivity score: 0
U2OS [13]
  drug sensitivity score: 0
Vero E6 [3]
  drug sensitivity score: 0

## Nc1nnc(-c2cccc(Cl)c2Cl)c(N)n1 [lamotrigine]
Calu-3 [1]
  drug sensitivity score: 0
U2OS [13]
  drug sensitivity score: 0

## CC(=O)CC(=O)O [lithium-acetoacetate]
Caco-2 [4]; 1 nM
  cell viability: 94%
Caco-2 [4]; 10 nM
  cell viability: 104%
Caco-2 [4]; 100 nM
  cell viability: 101%
Caco-2 [4]; 1000 nM
  cell viability: 109%
Caco-2 [4]; 10000 nM
  cell viability: 99.3%
Calu-3 [5]; 1 nM
  cell viability: 98.2%
Calu-3 [5]; 10 nM
  cell viability: 101%
Calu-3 [5]; 100 nM
  cell viability: 98.9%
Calu-3 [5]; 1000 nM
  cell viability: 99%
Calu-3 [5]; 10000 nM
  cell viability: 100%
U2OS [7]; 1 nM
  cell viability: 98.6%
U2OS [7]; 10 nM
  cell viability: 101%
U2OS [7]; 100 nM
  cell viability: 98.1%
U2OS [7]; 1000 nM
  cell viability: 102%
U2OS [7]; 10000 nM
  cell viability: 96.8%
Vero E6 [8]; 1 nM
  cell viability: 103%
Vero E6 [8]; 10 nM
  cell viability: 104%
Vero E6 [8]; 100 nM
  cell viability: 103%
Vero E6 [8]; 1000 nM
  cell viability: 97.7%
Vero E6 [8]; 10000 nM
  cell viability: 105%
Caco-2 [14]
  relative viability EC50: > 10 µM
Calu-3 [9]
  relative viability EC50: > 10 µM
U2OS [10]
  relative viability EC50: > 10 µM
Vero E6 [11]
  relative viability EC50: > 10 µM
Caco-2 [12]
  drug sensitivity score: 0
Calu-3 [1]
  drug sensitivity score: 0
U2OS [13]
  drug sensitivity score: 0
Vero E6 [3]
  drug sensitivity score: 0
